# Patent US20170224823A1, “PLATINUM-CATALYZED SILICONE DRUG DELIVERY DEVICES AND METHODS OF USE THEREOF” (priority 2014, published 2017)
# Several values for one entry are separate records, joined by “and”; a condition that tells them apart may be missing. Equal values may be shown once.
# Experiments:
# [1] = In vitro release from addition-cured (Pt) LSR9-9508-30 matrix vaginal rings; assay type: physicochemical; conditions: for Total release, % of initial drug loading / Time after which release ceased: LSR9-9508-30 matrix rings, 21-day study; for Total release, % of initial drug loading: non-micronized LNG, micronized EE, micronized ET; for Release mechanism: LSR9-9508-30 rings, duration of the 21-day study
# From the text: (§1) Formulations of dapivirine (DAP or DPV) with a contraceptive hormone were investigated for use with a multipurpose prevention technology (MPT) intravaginal ring system. Dapivirine and non-micronized levonorgestrel (LNG), micronized ethinyl estradiol (EE), or micronized etonogestrel (ET) were studied in condensation cured (Sn) or addition cured (Pt) silicone systems. Matrix-type vaginal rings were manufactured by injection moulding, using either MEDS-6382 (condensation-cured) or LSR9-9508-30 (addition-cured) silicone elastomers. Release of DAP and LNG from the LSR9-9508-30 rings was diffusion-controlled for the duration of the 21-day study. Total DAP release was 41% of the initial loading, while only 29% LNG loading was released. Both drugs would have continued to be released beyond 21 days had the study had continued. However, release of EE and ET ceased after 13 and 8 days respectively, with only 36 and 23% of initial drug loading released.
# [2] = In vitro release from platinum-catalyzed silicone matrix rings (200 mg dapivirine, 32 mg levonorgestrel), storage stability study; assay type: physicochemical; conditions: for Release at week-two time point: rings with micronized levonorgestrel and micronized dapivirine, stored two weeks
# Experimental: Platinum-catalyzed silicone matrix intravaginal rings comprising 200 mg micronized dapivirine and 32 mg levonorgestrel (both micronized and non-micronized) were utilized in this study. FIGS. 1 and 2 depict the mean and cumulative daily release of dapivirine and levonorgestrel versus time for micronized levonorgestrel and micronized dapivirine on storage stability. […] For the non-micronized levonorgestrel rings, there was less than 100% recovery of the amount of levonorgestrel added in two of the rings tested for content after initial release rate testing. […] All of the levonorgestrel release rate results obtained in this study are likely to have been influenced by this phenomenon.
# wild-type HIV-1 strains = conditions: cited from earlier work
# [3] = tested on: HIV-1 strains harboring different resistance-inducing mutations; conditions: cited from earlier work
# Solubility in water = assay type: physicochemical
# [4] = Raman microscopy to assess drug binding to poly(methylhydrosiloxane); assay type: physicochemical; conditions: Raman microscopy (FIG. 12)
# From the text: FIG. 12 depicts Raman microscopy studies to assess drug binding to poly(methylhydrosiloxane). LNG: levonorgestrel, DAP: dapivirine, PRG: progesterone, EE: Ethynyl estradiol.
# To determine the binding site of compounds to the silicone polymer, Raman spectroscopy studies were undertaken. In the first study, scanning Raman microscopy was used as a method for mapping drug distribution in silicone elastomer films. Thin films were created using NuSil DDU-4320 silicone elastomer and either dapivirine, micronized levonorgestrel, or non-micronized levonorgestrel. 400 points were sampled. In the second study, Raman microscopy was used as a tool to assess binding to poly(methylhydrosiloxane).
# [5] = In vitro release from condensation-cured (Sn) MEDS-6382 matrix vaginal rings; assay type: physicochemical
# From the text: as §1
# [6] = Recovery from NuSil MED-4870 platinum-catalyzed silicone slabs; assay type: physicochemical; conditions: for % LNG Recoverable: MED-4870 slab
# Experimental: (§2) Methods for assaying the percent of compound having a terminal alkene, alkyne or carbonyl group recoverable from or covalently bound to a platinum-catalyzed silicone intravaginal drug delivery device of the invention are commonly known in the art. For example, silicone intravaginal rings, slabs or IUDs can be added to a glass flask. 5 mL of a 2.5 mg/mL norethindrone solution (NOR; present as an internal standard) in methanol can be added to the flask along with 95 mL of dichlormethane (DCM). The flask can be placed in a rotating orbital incubator set at 37° C. and 60 rpm for 72 hours. A 2 mL aliquot of the cooled extraction mixture can be transferred to a glass centrifuge tube and allowed to evaporate to dryness. The dried samples can be reconstituted in 10 mL of methanol with vortex mixing for 30 seconds and sonication for 40 minutes. A 1:10 dilution of this solution can be prepared using methanol and water such that the final solvent composition is 1:1. This solution and be analyzed by HPLC. Recovery can be expressed as a percentage of predicted compound as compared to the original amount of compound present in the silicone intravaginal ring, slab or IUD. The final data can be corrected based on the recovery of a control solution of known compound concentration that was “extracted” at the same time.
# Higher cure temperatures were required for the NuSil MED-4870 system to ensure sufficient curing to allow for slab removal from the molds. […]
# [7] = Recovery from NuSil DDU-4320 platinum-catalyzed silicone slabs or rings; assay type: physicochemical; conditions: DDU-4320 slab
# Experimental: as §2
# The influence of silicone polymer system cure time, and cure temperature on levonorgestrel was also investigated. With the understanding that the NuSil DDU-4320 could be cured at a lower temperature than NuSil MED-4870, process optimization proceeded with NuSil DDU-4320.
# For example, at a cure temperature and time of 100° C. for 7 minutes, approximately 87% of the LNG added was recovered using non-micronized LNG, compared with only 12% for micronized LNG. LNG recovery decreased with increasing cure temperature and cure time for both the micronized and non-micronized LNG. For example, the recovery of micronized LNG falls from 35% to zero as the cure time at 100° C. is increased from 1.5 minutes to 30 minutes. Similarly, the recovery of non-micronized LNG falls from approximately 87% to 59% as the cure temperature is increased from 60° C. to 160° C. at a cure time of 7 minutes.
# In an effort to define the maximum possible recovery of contraceptive using the best possible conditions for manufacture, further silicone slabs were prepared with non-micronized LNG. In this case, a low temperature manufacture at 60° C. with a cure time of 6 minutes was compared to a shorter higher temperature cure of 100° C. for 1.5 minutes. In addition, to define precisely the recovery of LNG expected from a ring compared to a slab, intravaginal rings were also prepared under the above conditions. […]
compound,measurement,setting,value
"Cc1cc(C)c(Nc2ccnc(Nc3ccc(C#N)cc3)n2)c(C)c1 [DAP, 4-[[4-[(2,4,6-trimethylphenyl)amino]-2-pyrimidinyl]amino]benzonitrile]","Total release, % of initial drug loading",[1],41%
same,Release mechanism,[1],diffusion-controlled
same,Release at week-two time point,[2],reasonable dapivirine release
same,Activity against wild-type HIV-1 strains,wild-type HIV-1 strains,potent activity
same,Activity against HIV-1 strains harboring resistance-inducing mutations,[3],potent activity
same,Solubility in water,Solubility in water,virtually insoluble in water
same,solubility,Solubility in water; water,< 1 µg/mL
same,Covalent binding to the silicone polymer,[4],do not covalently bind
"C#C[C@]1(O)CC[C@H]2[C@@H]3CCc4cc(O)ccc4[C@H]3CC[C@@]21C [EE, Ethynyl Estradiol]","Total release, MEDS-6382 compared with LSR9-9508-30",[5],greater from MEDS-6382 than LSR9-9508-30
same,Time after which release ceased,[1],13 days
same,"Total release, % of initial drug loading",[1],36%
same,Covalent binding to the silicone polymer,[4],covalently bind
"C#C[C@]1(O)CC[C@H]2[C@@H]3CCC4=CC(=O)CC[C@@H]4[C@H]3C(=C)C[C@@]21CC [ET, etonogestrel]","Total release, MEDS-6382 compared with LSR9-9508-30",[5],greater from MEDS-6382 than LSR9-9508-30
same,Time after which release ceased,[1],8 days
same,"Total release, % of initial drug loading",[1],23%
"C#C[C@]1(O)CC[C@H]2[C@@H]3CCC4=CC(=O)CC[C@@H]4[C@H]3CC[C@@]21CC [LNG, 13-ethyl-17-ethynyl-17-hydroxy-1,2,6,7,8,9,10,11,12,13,14,15,16,17-tetrad-ecahydrocyclopenta[a]phenanthren-3-one]",Levonorgestrel content of slab,[6]; NuSil MED-4870 slab heated at 160° C. for 5 minutes,47%
same,% LNG Recoverable,"[6]; micronized, 120° C., 10 min",0%
same,% LNG Recoverable,"[6]; micronized, 140° C., 10 min",0%
same,% LNG Recoverable,"[6]; micronized, 160° C., 1.5 min",0%
same,% LNG Recoverable,"[6]; micronized, 160° C., 7 min",0%
same,% LNG Recoverable,"[6]; micronized, 160° C., 10 min",0%
same,% LNG Recoverable,"[6]; micronized, 160° C., 15 min",0%
same,% LNG Recoverable,"[6]; micronized, 160° C., 20 min",0%
same,% LNG Recoverable,"[6]; micronized, 160° C., 30 min",0%
same,% LNG Recoverable,"[6]; micronized, 160° C., 120 min",0%
same,% LNG Recoverable,"[6]; micronized, 180° C., 10 min",0%
same,% LNG Recoverable,"[6]; micronized, 200° C., 10 min",0%
same,% LNG Recoverable,"[6]; non-micronized, 120° C., 10 min",65%
same,% LNG Recoverable,"[6]; non-micronized, 140° C., 10 min",55%
same,% LNG Recoverable,"[6]; non-micronized, 160° C., 1.5 min",65%
same,% LNG Recoverable,"[6]; non-micronized, 160° C., 7 min",47%
same,% LNG Recoverable,"[6]; non-micronized, 160° C., 10 min",60%
same,% LNG Recoverable,"[6]; non-micronized, 160° C., 15 min",33%
same,% LNG Recoverable,"[6]; non-micronized, 160° C., 20 min",28%
same,% LNG Recoverable,"[6]; non-micronized, 160° C., 30 min",10%
same,% LNG Recoverable,"[6]; non-micronized, 160° C., 120 min",0%
same,% LNG Recoverable,"[6]; non-micronized, 180° C., 10 min",8%
same,% LNG Recoverable,"[6]; non-micronized, 200° C., 10 min",0%
same,% LNG Recoverable,"[7]; micronized, 60° C., 7 min",75%
same,% LNG Recoverable,"[7]; micronized, 80° C., 7 min",50%
same,% LNG Recoverable,"[7]; micronized, 100° C., 1.5 min",35% and 37%
same,% LNG Recoverable,"[7]; micronized, 100° C., 3 min",25%
same,% LNG Recoverable,"[7]; micronized, 100° C., 7 min",10% and 18%
same,% LNG Recoverable,"[7]; micronized, 100° C., 15 min",2%
same,% LNG Recoverable,"[7]; micronized, 100° C., 120 min",0%
same,% LNG Recoverable,"[7]; micronized, 120° C., 7 min",0%
same,% LNG Recoverable,"[7]; micronized, 140° C., 7 min",0%
same,% LNG Recoverable,"[7]; micronized, 160° C., 7 min",0%
same,% LNG Recoverable,"[7]; non-micronized, 80° C., 7 min",83%
same,% LNG Recoverable,"[7]; non-micronized, 100° C., 3 min",82%
same,% LNG Recoverable,"[7]; non-micronized, 100° C., 15 min",85%
same,% LNG Recoverable,"[7]; non-micronized, 100° C., 30 min",80%
same,% LNG Recoverable,"[7]; non-micronized, 100° C., 120 min",75%
same,% LNG Recoverable,"[7]; non-micronized, 120° C., 7 min",83%
same,% LNG Recoverable,"[7]; non-micronized, 140° C., 7 min",82% and 80%
same,% LNG Recoverable,"[7]; non-micronized, 160° C., 7 min",58%
same,% LNG Recoverable,"[7]; non-micronized, 160° C., 7 min, listed as levonorgestrel",59%
same,"Total release, % of initial drug loading",[1],29%
same,Release mechanism,[1],diffusion-controlled
same,"Release from platinum catalyzed silicone rings, non-micronized compared to micronized",[2]; non-micronized levonorgestrel,increased release
same,Release of levonorgestrel detected initially (T0),[2]; rings with micronized levonorgestrel,negligible release
same,Release at week-two time point,[2],lack of levonorgestrel release
same,Covalent binding to the silicone polymer,[4],covalently bind
"CC(=O)[C@H]1CC[C@H]2[C@@H]3CCC4=CC(=O)CC[C@]4(C)[C@H]3CC[C@]12C [PRG, Progesterone]",Covalent binding to the silicone polymer,[4],covalently bind
